# Results from patent US12516049B2, “Sulfonylurea ring substituted monocyclic β-lactam antibiotics” (priority 2019, dated 2026).
# How the values were obtained:
# Experiment in all cases: MIC, two-fold agar dilution, clinical isolate
# Type in all cases: cell-based
# E.coli 020028 = details: Escherichia coli, single drug, average of three tests
# Procedure: (§1) The minimum inhibitory concentration (MIC) of the compound and combination with β-lactamase (MBLs) inhibitors against clinically isolated carbapenem-resistant enterobacteriaceae was determined by the two-fold agar dilution method to determine the activity of the compound to be tested against strains producing MBLs. Antibiotics and enzyme inhibitors were weighed separately and dissolved in sterile ultrapure water or dimethyl sulfoxide to prepare mother liquor, MHA medium was prepared, pH was adjusted to 7.2-7.4, and it was sterilized at 121° C. for 15 minutes and placed in a 55° C. water bath for heat preservation. The mother liquor was diluted to the concentration to be tested by double dilution method, an inoculum liquid was prepared by direct bacterial suspension method, 1 mL of the prepared bacteria solution was withdrawn and putted into the inoculation tube, and a positioning needle and an inoculation needle were installed. A bacterial multi-point inoculator was started for inoculation. After the bacterial solution was absorbed by the agar, the plate was placed upside down in an incubator at 37° C. for 16-20 hours, and the results were observed. The average of three tests was taken.
# E.coli 020031 = details: Escherichia coli, single drug, average of three tests
# Procedure: as §1
# E.coli 020033 = details: Escherichia coli, single drug, average of three tests
# Procedure: as §1
# E.coli 115103 = details: Escherichia coli; E.coli 115103; single drug; average of three tests; read-out: MIC
# Procedure: as §1
# E.coli BAA-2452 = details: Escherichia coli, BAA2452
# Procedure: as §1
# E.coli C1569 = details: Escherichia coli, single drug, average of three tests
# Procedure: as §1
# E.coli CRE18 = details: Escherichia coli; E.coli CRE18; single drug; average of three tests; read-out: MIC
# Procedure: as §1
# E.coli CRE21 = details: Escherichia coli; E.coli CRE21; single drug; average of three tests; read-out: MIC
# Procedure: as §1
# E.coli CRE23 = details: Escherichia coli; E.coli CRE23; single drug; average of three tests; read-out: MIC
# Procedure: as §1
# E.coli CRE28 = details: Escherichia coli; E.coli CRE28; single drug; average of three tests; read-out: MIC
# Procedure: as §1
# K.p 090339 = system: K.p 090339
# Procedure: as §1
# K.p 11544 = details: K.p 11544; single drug; average of three tests; read-out: MIC
# Procedure: as §1
# K.p 13249 = details: K.p 13249; single drug; average of three tests; read-out: MIC
# Procedure: as §1
# K.p 6777 = system: K.p 6777
# Procedure: as §1
# K.p BAA-2470 = system: K.p BAA-2470
# Procedure: as §1
# K.p C904 = system: K.p C904
# Procedure: as §1
# K.p CRE12 = details: single drug, average of three tests
# Procedure: as §1
# K.p CRE16 = details: single drug, average of three tests
# Procedure: as §1
# K.p HX37 = details: K.p HX37; single drug; average of three tests; read-out: MIC
# Procedure: as §1
# K.p HX77 = details: single drug, average of three tests
# Procedure: as §1
# [1] = system: Morganella morganii C1274; details: Morganella morganii, C1274
# Procedure: as §1
smiles,measurement,setting,value
NC[C@@H]1CN(C[C@@H]2[C@H](NC(=O)/C(=N\OC3(C(=O)O)CC3)c3csc(N)n3)C(=O)N2S(=O)(=O)O)S(=O)(=O)N1 [Compound 4],MIC,E.coli 020028,0.03 µg/mL
same,MIC,E.coli 020031,0.5 µg/mL
same,MIC,E.coli 020033,1 µg/mL
same,MIC,E.coli 115103,1 µg/mL
same,MIC,E.coli BAA-2452,0.125 µg/mL
same,MIC,E.coli C1569,1 µg/mL
same,MIC,E.coli CRE18,1 µg/mL
same,MIC,E.coli CRE21,1 µg/mL
same,MIC,E.coli CRE23,1 µg/mL
same,MIC,E.coli CRE28,1 µg/mL
same,MIC,K.p 090339,0.125 µg/mL
same,MIC,K.p 11544,0.06 µg/mL
same,MIC,K.p 13249,0.06 µg/mL
same,MIC,K.p 6777,0.125 µg/mL
same,MIC,K.p BAA-2470,0.125 µg/mL
same,MIC,K.p C904,0.125 µg/mL
same,MIC,K.p CRE12,0.06 µg/mL
same,MIC,K.p CRE16,0.06 µg/mL
same,MIC,K.p HX37,0.25 µg/mL
same,MIC,K.p HX77,0.03 µg/mL
same,MIC,[1],0.125 µg/mL
